Results taken from US6455537B1, “Methods for treating opiate intolerance” (priority 1999, dated 2002).
“Also recorded” adds a separate entry of the source.

Columns and labels:
[1] = test system: Rat; assay: Ataxic gait after antagonist alone, bolus intravenous injection; format: in vivo; settings: i.v.; only the opiate antagonist given
From the text: Only the opiate antagonist was given to study the acute side effect liability. Relative to the other compounds tested, higher doses of R N-methylnalorphine were required to produce ataxia as compared with the other compounds, with the exception of R and S N-methylnalorphine. Animals showing ataxic gait walked unsteadily with a widespread placement of the feet in a staggering manner.

[2] = test system: morphine-induced emesis; assay: Prevention of morphine-induced emesis in dogs; settings: for Anti-emetic ED84 value: i.v. 5 minutes prior to morphine 0.7 mg/kg i.m., estimated dose that protects 84% of treated dogs
[3] = test system: analgesic effects of morphine; assay: Antagonism of morphine analgesia, tail flick test in rats; settings: i.v.; lowest dose significantly antagonizing morphine in the tail flick test
[4] = test system: morphine-induced constipation; assay: Gastrointestinal transit of a charcoal meal in morphine-treated mice; format: in vivo; settings: morphine 3 mg/kg s.c.; charcoal meal by oral gavage; transit 25 minutes after charcoal
Protocol: Animals were give R N-methylnalorphine, then morphine 15 minutes later, followed by charcoal suspended in MC. Transit was measured 25 minutes after charcoal. * p<0.05 compared to morphine-treatment.
Morphine produces constipation, especially during chronic use. R N-methylnalorphine can also be used to treat constipation. […] These mice had reduced intestinal transit times of the charcoal gavage after morphine. The reduced rate of GI transit time produced by morphine is thought to be the basis of morphine's constipating effects in mammals, including man.

[5] = test system: guinea pig ileum; settings: cited from earlier work
[6] = test system: dogs; assay: Emesis produced by the antagonist by itself in dogs
[7] = test system: cis-platinum-induced emesis; assay: Cis-platinum-induced emesis in dogs; format: in vivo; settings: 0.5 mg/kg i.v.
From the text: Ondasetron is used postoperatively to reduce the incidence of emesis during recovery from surgery, and to reduce nausea and vomiting of cancer patients who may be receiving chemotherapy with agents such as cis-platinum. It is not effective in all post surgical or cancer patients.

Row | SMILES | Minimum Dose to Produce Ataxic Gait In Rat [1] [mg/kg i.v.] | Anti-emetic ED84 value [2] | Minimum Effective Dose to Antagonize Morphine Analgesia [3] [mg/kg i.v.] | Effect on slowed gastrointestinal transit produced by morphine [4] | further results
1 | C=CC[N+]1(C)CC[C@]23c4c5ccc(O)c4O[C@H]2C(=O)CC[C@@]3(O)[C@H]1C5 (stereo partly drawn) [N-methylnaloxone] | 15 | 0.18 mg/k i.v. mg/kg | 2.5 |  | 
2 | C[N@+]1(CC2CC2)CC[C@]23c4c5ccc(O)c4O[C@H]2C(=O)CC[C@@]3(O)[C@H]1C5 [N-methylnaltrexone] | 15 | 0.25 mg/kg i.v. | 15 |  | 
3 | C=CC[N@@+]1(C)CC[C@]23c4c5ccc(O)c4O[C@H]2[C@@H](O)C=C[C@H]3[C@H]1C5 [R N-methylnalorphine, (5α,6α,17R)-7,8-didehydro-4,5-epoxy-3,6-dihydroxy-17-methyl-17-(2-propenyl)morphinanium chloride] | 30 | 0.11 mg/kg i.v. | 30.0 | reversal of the slowed transit time produced by morphine; also recorded: dose-dependent increase in gastrointestinal transit | Anti-emetic ED84 value ([2]; listed as compound of Formula (I)): 0.11 mg/kg
4 | C=CC[N+]1(C)CC[C@]23c4c5ccc(O)c4O[C@H]2[C@@H](O)C=CC3[C@H]1C5 (stereo partly drawn) [S N-methylnalorphine] | 15 |  |  | no effect | Agonist potency weaker than antagonist activity in vitro [5]: 10 fold; Agonist properties ([5]; guinea pig ileum, not other tissues with mu receptors): very weak agonist properties; Block of morphine-induced emesis ([2]; doses tested up to 0.5 mg/kg i.v., morphine 0.7 mg/kg i.m., listed as S isomer of N-methylnalorphine): not active; Emesis in % of animals ([6]; 0.5 mg/kg i.v., compound by itself): Emesis in 12.5% of animals at 0.5; Doses at which dogs demonstrated emesis ([6]; dog, in vivo, intravenous): > 0.5 mg/kg; Animals with emesis produced by the compound by itself ([6]; first pharmacological action): 1 out of 8
5 | Cc1nccn1CC1CCc2c(c3ccccc3n2C)C1=O (stereo not drawn) [ondansetron] |  |  |  |  | Protection from cis-platinum-induced emesis [7]: completely protects; Protection from the emetic effects of morphine ([2]; 0.5 mg/kg i.v., morphine 0.7mg/kg i.m.): failed to protect any dogs
